Experimental data published in patent publication US10416170B2, “Detection and removal of misfolded proteins/peptides” (OXPROTECT GMBH, priority 2011, dated 2019).

Test system: misfolded proteins
Assay: Binding of misfolded proteins to biotinylated peptide on streptavidin plate (OD 492 nm) or Biacore sensor chip
Conditions: statement in words; data only in figures
Procedure: Biotinylated PRKLYDY (SEQ ID NO: 5) was coated on a preblocked streptavidin plate for 1 hour at room temperature. After a washing step different concentrations of HOCl-modified albumin, or HOCl-modified fibrinogen, or HOCl-modified antithrombin, or HOCl-modified LDL (including negative control) were added for 1 hour at room temperature. After another washing step mouse anti HSA antibody was added to HOCl-modified albumin, rabbit anti fibrinogen antibody to HOCl-modified fibrinogen, rabbit anti antithrombin antibody to HOCl-modified antithrombin and mouse anti Apo B antibody to HOCl-modified LDL for 1 hour at room temperature. After another washing step the corresponding peroxidase coupled secondary antibody was added for 1 hour at room temperature. After a final washing step it was stained with o-phenylenediamine-substrate and the reaction was stopped after 30 min with 4 N sulphuric acid. The optical density was measured at 492 nm. The result is illustrated in FIG. 1A and FIG. 1B.
Biotinylated HWRRAHLLPRLP (SEQ ID NO: 2) was coated on a preblocked streptavidin plate for 1 hour at room temperature. After a washing step different concentrations of HOCl-modified albumin, or HOCl-modified fibrinogen, or HOCl-modified antithrombin, or HOCl-modified LDL (including negative control) were added for 1 hour at room temperature. […] The optical density was measured at 492 nm (FIG. 8A and FIG. 8B). […]

Q: How did the “affinity for misfolded proteins (general binding partner)” value turn out when “PRKLYDY (Plasminogen peptide) [Pro, Arg, Lys, Leu, Tyr, Asp, Tyr]” was run?
A: high affinity

Q: How did the “affinity for misfolded proteins (general binding partner)” value turn out when “HWRRAHLLPRLP (ADAM15 peptide aa position 286-297) [His, Trp, Arg, Arg, Ala, His, Leu, Leu, Pro, Arg, Leu, Pro]” was run?
A: high degree of affinity
